From article PMC3848336, “Aurora Isoform Selectivity: Design and Synthesis of Imidazo[4,5-b]pyridine Derivatives as Highly Selective Inhibitors of Aurora-A Kinase in Cells” (Journal of Medicinal Chemistry, 2013) come the findings set out here.

Where “and” joins values, the source holds several entries; their conditions need not be identical. Identical values can stand only once.

A short description of this data set: In vivo mouse PK. Particulars: plasma, mouse (female Balb/C), 5 mg kg^–1. The method, then:
(§1) Mice (female Balb/C) were dosed po or iv with 28c (5 mg kg^–1) in 10% DMSO and 5% Tween 20 in saline. After administration, the mice were sacrificed at 5, 15, and 30 min and 1, 2, 4, 6, and 24 h. Blood was removed by cardiac puncture and centrifuged to obtain plasma samples. The plasma samples (100 μL) were added to the analytical internal standard (IS; olomoucine), followed by protein precipitation with 300 μL of methanol. Following centrifugation (1200g, 30 min, 4 °C), the resulting supernatants were analyzed for 28c levels by LC/MS using a reversed-phase X-Bridge C18 (Waters, 50 × 2.1 mm) analytical column and positive ion mode ESI MRM on a Waters 2795 liquid chromatography system coupled to a Quattro Ultima triple-quadrupole mass spectrometer (Waters).
as §1, with “40f” for “28c”, “The plasma samples (100 μL) were added to the analytical internal standard (IS; olomoucine), followed by protein precipitation with 300 μL of methanol.” left out, “Polar RP (Phenomenex,” for “X-Bridge C18 (Waters,”, “2” for “2.1”

As for `Cc1nn(C)cc1-c1nc2c(Oc3ccc(C(=O)Nc4ccccc4)cc3)c(Cl)cnc2[nH]1` [compound 28c, 4-((6-Chloro-2-(1,3-dimethyl-1H-pyrazol-4-yl)-3H-imidazo[4,5-b]pyridin-7-yl)oxy)-N-phenylbenzamide], the clearance was 0.883 mL/min and 44.2 mL/min/kg. Also, under “read-out: volume of distribution”, the Vd is 0.036 L.
